Common to all, as to assay type: in vivo, chickens (Gallus gallus)
Assay [1] relates to AMR genes in the cecum microbiome. Description: AMR gene abundance analysis (AMR++ pipeline) of cecal microbiome. Particulars: day 35 cecum. Here is the method: AMR gene abundances per sample were determined using the AMR++ pipeline (Lakin, S. M. et al., Nucleic Acids Res 45, D574-D580 (2017)) (v. 2.0.2) starting from the raw metagenomics sequences and using the MegaRes (v. 2.0.0) database. Only genes involved in drug resistance were considered. The AMR gene counts per sample obtained from AMR++ were expressed in unites of reads per kilobase per million reads (RPKM) based on the corresponding gene lengths from the MegaRes database. RPKM values across treatments were compared using the Mann-Whitney U test.

The next assay relates to cecal microbiome. Nature of the assay: Shotgun metagenomics (functional/taxonomic profiles, GSEA) of cecal microbiome, day 35 broilers. Conditions: day 35 cecal samples. On the procedure:
74 frozen cecal samples from day 35 birds were sent to CosmosID (Rockville, MD) for shotgun metagenomics sequencing. DNA was extracted using the ZymoBIOMICS DNA Miniprep Kit (ZymoBIOMICS, Irvine, CA) according to the manufacturers protocol. The isolated DNA was quantified by Qbit (ThermoFisher, Coon Rapids, MN). DNA libraries were prepared using the Illumina Nextera XT library preparation kit (Illumina, San Diego, CA), with a modified protocol. Libraries were then sequenced on an Illumina HiSeq platform 2×150 bp.
Reads were trimmed and Illumina adapters removed using Trimmomatic (v 0.39) (Bolger et al., Bioinformatics 30, 2114-2120 (2014)) with options SLIDINGWINDOW:5:20 LEADING:3 TRAILING:3. Host reads (Gallus gallus, GenBank assembly GCA_000002315) and spike-in reads from Vibrio harveyii (ATCC 14126) were removed using Bowtie2 (v. 2.3.5.1) (Langmead et al., Nat Methods 9, 357-359 (2012)).
Taxonomic profiling of individual reads was carried out using Kaiju (v. 1.7.3) (Menzel et al., Nat Commun 7, 11257 (2016)) with the nr_euk database. Kaiju outputs were summarized for each read as the number of bases aligned to proteins in the reference database. In cases of individual reads mapping to more than one taxonomic group, the number of bases assigned to each taxon was calculated as the alignment length (in base pairs) multiplied by the fraction of bases assigned unambiguously to said taxon out of all the taxa to which the read mapped. The numbers of assigned bases per read were used to estimate species-level relative abundances using metametamerge (v. 1.1) (Piro, V. C., et al., Microbiome 5, 101 (2017).) taking into account the average coding length per species in the nr_euk database.
Functional profiling was done by first assembling the reads from each sample into contigs using Spades (v. 3.13.1, option --meta) (Nurk, S. et al., Genome Res 27, 824-834 (2017)), with default parameters, followed by protein prediction with Prokka (v. 1.14.5) (Seemann, T. Prokka: Bioinformatics 30, 2068-2069 (2014).). Predicted protein sequences were aligned to a reference database and using Diamond (v. 0.9.30) (Buchfink, B. et al. Nat Methods 18, 366-368 (2021)) and annotated based on the function assigned to the top hit in the database. To avoid misannotations, (Plata, G. et al. Nat Chem Biol 8, 848-854 (2012)) the inventors only considered hits with at least 70% identity and 70% query coverage. The reference database was built starting from 46,181 complete bacterial genomes downloaded from the PATRIC (Davis, J. J. et al. Nucleic Acids Res 48, D606-D612 (2020)) database representing at most 10 genomes per species from ˜400 taxonomic families including those most frequently observed in broiler microbiomes. To speed up functional annotations, protein sequences within each family in the database were clustered at 90% sequence identity using CD-HIT (v. 4.8.1) (Huang, Y. et al. Bioinformatics 26, 680-682 (2010)) and the longest sequence from each cluster was kept for the diamond search.
To quantify the abundance of each function per sample, reads were mapped to the corresponding contigs using BWA (v. 0.7.17) (Li, H. & Durbin, R. Bioinformatics 25, 1754-1760 (2009)), and reads mapping to each predicted protein were counted with HTseq (v. 0.11.3) (Anders, S. et al. Bioinformatics 31, 166-169 (2015)). Read counts per RAST functional role were TPM normalized based on the Prokka protein lengths (Zhao, S. et. al. RNA 26, 903-909 (2020)) and expressed in units of mean copy numbers per genome by calculating a normalization factor such that the median abundance of a set of universal-single copy bacterial genes (Creevey, C. J. et al. PLOS One 6, e22099 (2011)) was set to 1 (Manor, O. & Borenstein, E. Genome Biology 16, 53 (2015)). A similar procedure was used to produce a copy-number normalized matrix of functional roles across samples stratified by the bacterial genera of the protein hits used to transfer functional annotations. […]

A further assay relates to Ross 708 male broilers. Nature of the assay: Clinical study of in-feed AGPs in broilers: weight gain and feed conversion. Conditions: in-feed: 50 g/ton BMD, 20 g/ton avilamycin, 16.5 g/ton virginiamycin, 70 g/ton narasin; 35 days. From the text:
500 healthy Ross 708 male broilers sourced from a commercial hatchery were used in the experiment. […] Birds were individually tagged with a unique identifier and were randomly assigned to one of 25 floor pens (20 animals per pen). Groups of 5 pens were assigned to each of 5 different treatments. The 5 treatments included: 1) control birds fed least-cost diets as follows: A starter diet was fed from days 0 to 14 of the study, followed by a grower diet (14-28d) and a finisher diet (28-35d). 2) Birds fed the above diets supplemented with 50 g/ton BMD. 3) Supplemented with 20 g/ton avilamycin. 4) Supplemented with 16.5 g/ton Virginiamycin. And 5) supplemented with 70 g/ton narasin. Birds were raised for 35 days in a barn on top of used litter.
Individual body weights were collected on days 0, 7, 21 and 35. Pen weights were collected on days 14 and 28. Feed weigh backs for each pen were done on days 7, 14, 21, 28 and 35 of the study. Average bird weights and feed intake per pen were used to calculate weekly values of average daily gain and feed conversion ratios. Weekly values were compared between treatments using the Mann Whitney U test. On days 7, 21 and 35 three birds per pen were randomly selected and euthanized for the collection of cecal contents and blood. Blood was collected via wing vein venipuncture, except for birds that were too small, in which cases direct heart puncture was used. In both cases, blood was collected into vacutainer tubes and centrifuged to obtain serum. Cecal samples were collected by aseptically squeezing the cecum content into a sterile tube. Cecal samples were placed on dry ice immediately after collection. All samples were stored at −80° C. until processing.

Each structure is given as a SMILES string. “Also recorded” adds a separate entry of the source.

With `CC[C@@H](C(=O)O)[C@@H]1O[C@@H]([C@@H](C)[C@H](O)[C@H](C)C(=O)[C@H](CC)[C@H]2O[C@]3(C=C[C@@H](O)[C@]4(CC[C@@](C)([C@H]5CC[C@](O)(CC)[C@H](C)O5)O4)O3)[C@H](C)C[C@@H]2C)[C@@H](C)C[C@@H]1C` [narasin], the “effect on AMR gene abundance profiles” value in assay [1] is given as “significantly different AMR gene abundance profiles”. Further, the “AMR gene classes changed compared to controls” value in assay [1] (Mann-Whitney U p-value<0.05) was “enriched for resistance to tetracyclines”. For the same molecule, the “total AMR gene abundance compared to control” value in assay [1] (RPKM) is recorded as “significant increase”. In the assay on cecal microbiome, the “functional processes depleted in cecal microbiome relative to controls (GSEA)” value is “utilization of mucin polysaccharides as well as cell matrix components including sialic acid, N-acetylneuraminate and hyaluronic acid”; the “functional processes enriched in cecal microbiome relative to controls (GSEA)” value is “propanediol utilization, molybdenum-containing cofactor synthesis and CO2 fixation via the Wood-Ljungdahl pathway; also recorded: Tryptophan synthesis, urea degradation, heme and tetrapyrrole biosynthesis, and xylose utilization”. The “impact on bird performance” value in the assay on Ross 708 male broilers is “highest impact on performance”.

(Values after patent US20250163522A1, “METHODS FOR PRESERVING HEALTHY INTESTINAL MICROBIOME DURING GROWTH PROMOTER ADMINSTRATION” (BIOMEDIT, LLC, priority 2022, published 2025).)
